In ChEMBL document CHEMBL1201862, “PubChem BioAssay data set” (2004):
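Method: 48-hour compound exposure of cells in 96-well plates, five concentrations, linear interpolation of endpoints. At the GI50, growth is halved.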 Active and inactive are the calls of the source. Rule as the data show it: active = GI50 up to about 1.1 µM and inactive = higher.

Experiments:
Assay in all cases: NCI tumour cell line growth inhibition, 48 h
786-0 = system: 786-0
A549 = system: A549
ACHN = system: ACHN
CAKI-1 = system: CAKI-1
CCRF-CEM = system: CCRF-CEM
COLO 205 = system: COLO 205
DLD-1 = system: DLD-1
DMS-114 = system: DMS-114
DMS-273 = system: DMS-273
EKVX = system: EKVX
HCC 2998 = system: HCC 2998
HCT-116 = system: HCT-116
HCT-15 = system: HCT-15
HOP-18 = system: HOP-18
HOP-62 = system: HOP-62
HT-29 = system: HT-29
IGROV-1 = system: IGROV-1
K562 = system: K562
KM-20L2 = system: KM-20L2
KM12 = system: KM12
LOX IMVI = system: LOX IMVI
LXFL 529 = system: LXFL 529
M14 = system: M14
M19-MEL = system: M19-MEL
MOLT-4 = system: MOLT-4
Malme-3M = system: Malme-3M
NCI-H226 = system: NCI-H226
NCI-H23 = system: NCI-H23
NCI-H460 = system: NCI-H460
NCI-H522 = system: NCI-H522
OVCAR-3 = system: OVCAR-3
OVCAR-4 = system: OVCAR-4
OVCAR-5 = system: OVCAR-5
OVCAR-8 = system: OVCAR-8
RPMI-8226 = system: RPMI-8226
RXF 393 = system: RXF 393
RXF 631 = system: RXF 631
SF-268 = system: SF-268
SF-295 = system: SF-295
SF-539 = system: SF-539
SK-MEL-28 = system: SK-MEL-28
SK-MEL-2 = system: SK-MEL-2
SK-MEL-5 = system: SK-MEL-5
SK-OV-3 = system: SK-OV-3
SN12C = system: SN12C
SNB-19 = system: SNB-19
SNB-75 = system: SNB-75
SNB-78 = system: SNB-78
SW-620 = system: SW-620
TK-10 = system: TK-10
U-251 = system: U-251
UACC-257 = system: UACC-257
UACC-62 = system: UACC-62
UO-31 = system: UO-31
XF498 = system: XF498

For `Nc1cccc(S(=O)(=O)NCC(=O)O)c1`, the GI50 (786-0) was > 100 µM (inactive), the GI50 (A549) was > 100 µM (inactive) and the GI50 (ACHN) was > 100 µM (inactive). For the same compound, the GI50 (CAKI-1) was > 100 µM (inactive), the GI50 (CCRF-CEM) was > 100 µM (inactive) and the GI50 (COLO 205) was > 100 µM (inactive). For the same compound, the GI50 (DLD-1) was > 100 µM (inactive), the GI50 (DMS-114) was > 100 µM (inactive) and the GI50 (DMS-273) was > 100 µM (inactive). The GI50 (EKVX) was > 100 µM (inactive), the GI50 (HCC 2998) was > 100 µM (inactive) and the GI50 (HCT-116) was > 100 µM (inactive). For the same compound, the GI50 (HCT-15) was > 100 µM, the GI50 (HOP-18) was > 100 µM (inactive) and the GI50 (HOP-62) was > 100 µM (inactive). For the same compound, the GI50 (HT-29) was > 100 µM (inactive), the GI50 (IGROV-1) was > 100 µM (inactive) and the GI50 (K562) was > 100 µM (inactive). For the same compound, the GI50 (KM-20L2) was > 100 µM (inactive), the GI50 (KM12) was > 100 µM (inactive) and the GI50 (LOX IMVI) was > 100 µM (inactive). For the same compound, the GI50 (LXFL 529) was > 100 µM (inactive), the GI50 (M14) was > 100 µM (inactive) and the GI50 (M19-MEL) was > 100 µM (inactive). The GI50 (MOLT-4) was > 100 µM (inactive), the GI50 (Malme-3M) was > 100 µM (inactive) and the GI50 (NCI-H226) was > 100 µM (inactive). The GI50 (NCI-H23) was > 100 µM (inactive), the GI50 (NCI-H460) was > 100 µM (inactive) and the GI50 (NCI-H522) was > 100 µM (inactive). For the same compound, the GI50 (OVCAR-3) was > 100 µM (inactive), the GI50 (OVCAR-4) was > 100 µM (inactive) and the GI50 (OVCAR-5) was > 100 µM (inactive). For the same compound, the GI50 (OVCAR-8) was > 100 µM (inactive), the GI50 (RPMI-8226) was > 100 µM (inactive) and the GI50 (RXF 393) was > 100 µM (inactive). The GI50 (RXF 631) was > 100 µM (inactive), the GI50 (SF-268) was > 100 µM (inactive) and the GI50 (SF-295) was > 100 µM (inactive). For the same compound, the GI50 (SF-539) was > 100 µM (inactive), the GI50 (SK-MEL-28) was > 100 µM (inactive) and the GI50 (SK-MEL-2) was > 100 µM (inactive). The GI50 (SK-MEL-5) was > 100 µM (inactive), the GI50 (SK-OV-3) was > 100 µM (inactive) and the GI50 (SN12C) was > 100 µM (inactive). The GI50 (SNB-19) was > 100 µM (inactive), the GI50 (SNB-75) was > 100 µM (inactive) and the GI50 (SNB-78) was > 100 µM (inactive). The GI50 (SW-620) was > 100 µM (inactive), the GI50 (TK-10) was > 100 µM (inactive) and the GI50 (U-251) was > 100 µM (inactive). The GI50 (UACC-257) was > 100 µM (inactive), the GI50 (UACC-62) was > 100 µM (inactive) and the GI50 (UO-31) was 73.5 µM (inactive). The GI50 (XF498) was > 100 µM (inactive).
